Legend:
[1] = system: PANC-1, PANC 02.13, MIA PaCa-2, Capan-1, KLM, AsPC-1 and BXPC3 cells; assay: Cytotoxicity/cell viability with romidepsin, DMPatA and their combination in seven PDAC cell lines (FIG. 1A); type: cell-based; details: romidepsin 15 nM for 6 h, alone or with DMPatA 2 nM
Experimental: FIG. 1A compares cytotoxicity graphs of the effect of romidepsin alone at increasing doses (circles), DMPatA alone at 2 nM (diamond), and combination of romidepsin with DMPatA at 2 nM (triangles) on PANC-1, PANC 02.13, MIA PaCa-2, Capan-1, KLM, AsPC-1 and BXPC3 cells. Romidepsin treatment in both the single agent and the combination was for 6 hours after which it was washed out and medium replaced with fresh medium without (single agent romidepsin) or with DMPatA for an additional 42 hours (combination).
This schedule of romidepsin treatment features a 6-hour exposure followed by washout of romidepsin and replacement with fresh media, whereas most investigators expose cells to 1-2 nM over 48-96 hours of continuous romidepsin. […] Thus a 6-hour exposure is more clinically relevant. Most cell types are susceptible to romidepsin over non-clinically relevant long treatment durations.
It was initially hypothesized that the HDAC-inhibitor romidepsin could cause synergistic cell death when combined with DMPatA via a reduction in MYC levels previously seen with both eIF4A inhibitors and with romidepsin in KRAS cells. […]
Cell viability was determined using CellTiter-Glo® reagent (Promega, #G7570) following the manufacturer's instructions. […] After incubation, assay reagent was added, and luminescent signals were quantified using a microplate reader (PHERAstar® FS, BMG LABTECH, Ortenberg, Germany). […]

KLM and MIA PaCa-2 cells = assay: Nascent RNA synthesis by EU labeling (FIG. 9B); type: cell-based; details: total 18 h, 5-EU incorporation
Experimental: FIG. 9B left panel compares EU-labeled nascent RNA and (Hoechst counterstain) in KLM cells treated with combination and single agents. Scale bar: 1 μm. FIG. 9B right panels present quantification of fluorescence intensities of nascent RNA synthesis in both KLM and MIA PaCa-2 cell lines. Statistical significance was determined by one-way ANOVA using Tukey multiple comparison's test, ****p value<0.0001, **p value<0.0002, **p value<0.002.
This apparent hypertranscription observed with the combination, was confirmed by the increase in nascent RNA output above the level of normal cells, following treatment for a total of 18 hours (i.e., 6-hour romidepsin followed by 12-hour washout with or without 2 nM DMPatA), quantified using incorporation of the modified RNA precursor 5-EU. […] Because HDAC inhibitors cause histone hyperacetylation and having observed the increase in gene expression following treatment with the combination, the impact of the combination on histone acetylation was assessed.
To detect changes in the global RNA transcription we used the Click-iT RNA Alexa Fluor 594 Imaging Kit (Invitrogen, #C10330). Briefly, cells were cultured in complete media and pulsed for 60 min with alkyne-modified nucleoside, 5-ethynyl uridine (EU) at a final concentration of 1 mM. […]

H3K9ac = assay: Immunohistochemistry of H3K9ac in MIA PaCa-2 xenograft tumor tissue (FIG. 2C); type: in vivo, athymic nude mice; details: IHC, tumors at end of study
Source text: FIGS. 2A and 2B illustrate the results of a MIA PaCa-2 xenograft model of PDAC in male athymic nude mice. FIG. 2A compares tumor growth (mm^3) in mice treated with the indicated concentrations of combination, romidepsin and DMPatA using IP route and vehicles described in the materials and methods section below. FIG. 2B compares body weight (g) of mice treated with the combination and single agents following treatment. FIGS. 2C and 2D compare quantification of H3K9ac and c-MYC antibodies. Frozen sections from MIA PaCa-2 xenograft tumor tissues were subjected to immunohistochemical analysis using antibodies against H3K9ac, and c-MYC. Fluorescence images were captured using fluorescent microscopy and the fluorescent signal from H3K9ac and c-MYC antibodies were quantified. To quantify fluorescence intensity at least 500 cells per condition were measured for each antibody at 40× magnification. The median of the signal intensity is shown. Statistical significance was determined by one-way ANOVA using Tukey multiple comparisons test, ****p value<0.0001.
Additionally, snap-frozen tumor tissue samples from the mice treated with vehicle, single agents, and the combination were collected at the end of the study. These samples were sectioned, and the levels of H3K9ac and c-MYC proteins in tumor tissues were assessed by immunohistochemistry. […]

[2] = patients, 4-hour infusion; cited from earlier work

## C/C=C1\NC(=O)[C@H]2CSSCC/C=C/[C@H](CC(=O)N[C@H](C(C)C)C(=O)N2)OC(=O)[C@H](C(C)C)NC1=O [romidepsin]
[1]
  toxicity / lethality at low concentration: minimal to no toxicity
KLM and MIA PaCa-2 cells
  nascent RNA (mRNA) synthesis: increase in RNA synthesis
H3K9ac
  H3K9ac level in tumor: increased significantly
[2]
  half-life: approximately 3.5 hour
